Results taken from patent US8394355B2, “Use of UTP for the diagnosis of stenoses and other conditions of restricted blood flow” (P2 science Aps, priority 2009, dated 2013).
Where “and” joins values, the source holds several entries; their conditions need not be identical. Equal entries are not always repeated. Entries after “also recorded” stand apart in the source; their conditions may differ.

Experiments:
[1] = test system: coronary arteries in humans with coronary artery disease; experiment: FFR during continuous intracoronary infusion via microcatheter (Example 3); type: in vivo; settings: for % of patients with FFR ≦ 0.8 / adverse effects during IC continuous infusion: microcatheter study; for adverse effects during IC continuous infusion: 10 patients; for optimal dose for achieving maximal coronary hyperemia and thereby the lowest FFR: FIG. 5
Text: As described previously, inducing stable maximal coronary hyperemia is essential for measurement of fractional flow reserve (FFR). This second experiment in a similar patient group evaluated the differential efficacy of intracoronary (IC) continuous adenosine infusion vs. IC continuous uridine triphosphate (UTP) infusion via a microcatheter for inducing steady state maximal coronary hyperemia. The present study was designed to evaluate the safety and effectiveness of the equimolar concentrations of UTP vs. adenosine infusion for use in the FFR method. Time to achievement of steady-state, impact of maximal hyperemia (lowest FFR) for the different compounds and side effects were recorded in 10 patients with intermediate coronary lesions. FFR was measured consecutively by IC continuous adenosine or UTP infusion using a microcatheter to bypass the proximal pressure transducer. The IC microcatheter (Progreat Microcatheter System, Terumo, Japan) used was positioned at the coronary ostium, and FFR was then measured by increasing IC continuous adenosine or UTP infusion rates in equimolar concentrations from 10 to 400 μg/min via the microcatheter.
After femoral catheterization, coronary angiography was performed with the standard femoral approach. Heparin was administered according to standard procedures.
Intracoronary nitroglycerin (0.2-0.3 mg) was administered before the control angiograms were made in the microcatheter study. Heart rate and arterial pressure were continuously monitored throughout the procedure. After a guiding catheter (5F catheter, Cordis Corp.) without side holes was positioned at the coronary ostium, coronary angiograms were obtained from multiple projections. Quantitative coronary analysis was performed by using an independent analyzer blinded to the results of FFR using a computer-assisted, automated computerized edge-detection algorithm (Siemens Medical System). The external diameter of the contrast-filled catheter was used as a calibration standard. Minimal luminal diameter, vessel diameter of the reference segment, and the percent diameter stenosis at end diastole were measured from the worst-view trace. After coronary angiography, a 0.014-in. pressure wire (Combowire, Volcano Corporation, US) was advanced distally to the stenosis through a 6F guiding catheter. In the microcatheter study, an IC bolus injection of nitroglycerin (0.2-0.3 mg) was given before advancing the pressure wire through the stenosis in order to avoid any mechanically-induced coronary vasoconstriction. The pressure wire was externally calibrated and then advanced to the distal tip of the catheter. It was verified whether equal pressure was recorded at both the catheter and the pressure wire. The pressure wire was advanced through the coronary catheter, introduced into the coronary artery, and positioned distal to the stenosis.
Distal coronary pressure (Pd) and proximal coronary pressure (Pa) were measured at baseline and at maximal hyperemia (adenosine vs. UTP) simultaneously. Fractional flow reserve was calculated by dividing mean Pd by mean Pa during maximal hyperemia. The time to optimal vasodilatation (time needed to reach >90% of the minimal value of Pd/Pa after administration of the adenosine or UTP) was computed in order to assess whether procedure time was prolonged. The hyperemic stimuli were given as follows: an IC continuous infusion of adenosine or UTP in incremental doses of 10, 20, 40, 80, 160, 240, […] and 400 μg/min, in both the left and right coronary artery depending upon lesion anatomy. The dosages were increased stepwise by IC continuous infusion with the microcatheter where the stepwise dose increase was recorded continuously without breaks. After each stepwise increase, FFR and CFR were recorded automatically. The next hyperemic stimulus UTP vs adenosine was given when Pa, Pd, and heart rate returned to their baseline values.

[2] = test system: coronary arteries in humans with coronary artery disease; experiment: FFR during continuous intracoronary infusion via guiding catheter (Example 2); type: in vivo; parameters: key: FFR = Pd/Pa (distal/proximal coronary pressure ratio); settings: Example 5 summary; Ttest 0.0034 adenosine vs UTP
[3] = test system: coronary arteries in humans with coronary artery disease; experiment: FFR during continuous intracoronary infusion via microcatheter (Example 3); type: in vivo; settings: individual patients, 320 μg/min
[4] = test system: leg blood flow; settings: cited from earlier work; for relative vasoactive potency (rank order): only for blood flows around 3.5 Lmin^−1

Compound | FFR Mean ([1]; mean of patients, 10 μg/min) | FFR Mean ([1]; mean, 20 μg/min) | FFR Mean ([1]; mean, 40 μg/min) | FFR Mean ([1]; mean, 80 μg/min) | FFR Mean ([1]; mean, 160 μg/min) | FFR Mean ([1]; mean, 240 μg/min) | FFR Mean ([1]; mean, 320 μg/min) | FFR Mean ([1]; mean, 400 μg/min) | % of patients with FFR ≦ 0.8 ([1]; 80 μg/min (n = 8)) | % of patients with FFR ≦ 0.8 ([1]; 160 μg/min (n = 6)) | % of patients with FFR ≦ 0.8 ([1]; 320 μg/min (n = 9)) | % of patients with FFR ≦ 0.8 ([1]; 400 μg/min (n = 3)) | adverse effects during IC continuous infusion [1] | optimal dose for achieving maximal coronary hyperemia and thereby the lowest FFR ([1]; microcatheter) | FFR Mean [2] | relative vasoactive potency (rank order) [4] | other results
Nc1ncnc2c1ncn2[C@@H]1O[C@H](CO)[C@@H](O)[C@H]1O [adenosine] | 0.90 | 0.88 | 0.86 | 0.84 | 0.82 | 0.81 | 0.82 | 0.82 | 37 % of patients | 33 % of patients | 44 % of patients | 33 % of patients | nearly all felt angina in the adenosine group; also recorded: some patients had a transient second degree A-V block; also recorded: nearly all patients experienced side effects | ~240 µg/min | 0.77 | 5.8 | FFR ([1]; individual patients (row = patient no.), IC continuous infusion 10 μg/min, microcatheter, listed as ADO): 0.81 and 0.94 and 0.86 and 0.99; FFR ([1]; individual patients, 20 μg/min, listed as ADO): 0.75 and 0.94 and 0.95; FFR ([1]; individual patients, 40 μg/min, listed as ADO): 0.73 and 0.94 (2×) and 0.82; FFR ([1]; individual patients, 80 μg/min, listed as ADO): 0.83 and 0.95 and 0.76 and 0.71 and 0.94 and 0.82 and 0.88; FFR ([1]; individual patients, 160 μg/min, listed as ADO): 0.80 and 0.95 (2×) and 0.60 and 0.68 and 0.85 and 0.96 and 0.75; FFR ([1]; individual patients, 240 μg/min, listed as ADO): 0.81 and 0.94 and 0.60 and 0.87 and 0.91 and 0.71; FFR ([1]; individual patients, 400 μg/min, listed as ADO): 0.56 and 1.01 and 0.89; FFR ([3]; listed as ADO): 0.79 and 0.96 and 0.54 and 0.70 (2×) and 0.95 and 0.86 and 1.02 and 0.89
O=c1ccn([C@@H]2O[C@H](COP(=O)(O)OP(=O)(O)OP(=O)(O)O)C(O)[C@@H]2O)c(=O)[nH]1 (stereo partly shown) [UTP, Uridine 5-triphosphate] | 0.84 | 0.83 | 0.83 | 0.78 | 0.79 | 0.79 | 0.79 | 0.79 | 62 % of patients | 50 % of patients | 44 % of patients | 33 % of patients | None of the patients had chest pain in the UTP group; also recorded: All patients tolerated UTP without side effects | approximately 80 μg/min | 0.72 | 100 | FFR in comparison to IC adenosine infusion ([1]; P<0.05): significantly lower; steady-stable hyperemia lasted longer compared to adenosine infusion ([1]; in vivo): ~20 s; FFR ([1]; individual patients (row = patient no.), IC continuous infusion 10 μg/min, microcatheter): 0.72 and 0.95 and 0.84; FFR ([1]; individual patients, 20 μg/min): 0.71 and 0.95; FFR ([1]; individual patients, 40 μg/min): 0.72 and 0.95 and 0.83; FFR ([1]; individual patients, 80 μg/min): 0.73 and 0.79 and 0.88 and 0.56 and 0.71 and 0.97 and 0.83; FFR ([1]; individual patients, 160 μg/min): 0.90 and 0.73 and 0.79 and 0.86 and 0.56 and 0.71 and 0.92 and 0.83; FFR ([1]; individual patients, 240 μg/min): 0.89 (2×) and 0.73 and 0.79 and 0.87 and 0.55; FFR ([1]; individual patients, 400 μg/min): 0.90 and 0.92 and 0.56; induction time to optimal coronary hyperemia ([1]; versus IC continuous adenosine infusion): shorter; FFR [3]: 0.90 (2×) and 0.89 and 0.72 and 0.77 and 0.86 and 0.56 and 0.69 and 0.84; blood flow increase, % of maximum in the leg during hard exercise ([4]; local infusion): 60%
